Reference: patent publication US9095541B2, “Brain tumor targeting peptides and methods” (Arch Cancer Therapeutics, Inc., priority 2009, dated 2015)
Peptide text beside a SMILES is read from it.

How the values were obtained:
[1] = test system: U87MG cells transfected with p75^NTR; assay: Transwell migration assay, p75NTR-transfected U87MG; assay type: cell-based, human; settings: in vitro invasion assay
Experimental: The membranes of 8 μm pore sized transwell inserts (Corning Costar) were coated with brain-like matrix (720 μL of 3 mg/mL collagen I (PureCol); 180 μL of 10×DMEM (Invitrogen); 9 uL of 1 mg/mL human plasma fibronectin (Sigma); 9 uL of 1 mg/mL chondroitin sulfate proteoglycans (Chemicon); 16 μL of 0.15 mg/mL laminin (Chemicon)) on both sides, allowed to dry, then plated with 5×10^4 cells in 100 μL media in the upper chamber and 500 μL media in the lower chamber. Inclusion of collagen was essential to see the inhibitory effect of H10 (FIG. S4). 3×10^10 pfu of test phage were added to the upper chambers containing the cells, which were incubated for 4 hours under normal culture conditions. At the end of the incubation, the media was aspirated and the cells were fixed and stained in 1% crystal violet in 95% ethanol for one minute. Transwells were rinsed in PBS, then cells on the upper membrane surfaces were removed with a cotton swab. Cells which had migrated to the undersurface of the membranes were counted by light microscopy, and the sum of cells in five microscopic fields was recorded for each membrane.

[2] = test system: lipid raft marker GM1 in U87R cells; assay type: cell-based, human; settings: cholesterol oxidase, Alexa 555-cholera toxin B subunit, 120 minutes
p75^NTR in U87R cells = assay: Sucrose/iodixanol density gradient fractionation with Western blot for p75NTR; assay type: cell-based, human; settings: U87R cells on collagen, treated 2 hours, 10-40% sucrose/iodixanol gradient
Excerpt: White arrows indicate higher molecular weight p75^NTR-containing complexes. Lines underneath the figure indicate the fractions in which common organelles are generally found;
The p75^NTR can be detected differentially in lipid rafts isolated with specific detergents, and must be proteolytically processed to trigger cell migration in glioma cells. Thus, it is probable that p75^NTR is also cleaved within a lipid raft after endocytosis. To determine if H10 may be having an impact on endosomally located p75^NTR, cells were hypertonically lysed (to keep vesicles and organelles at least partially intact) and separated on a 10-40% sucrose/iodixanol gradient from which fractions were individually collected.
Cells were scraped into 1 mL of 0.25M sucrose, 140 mM NaCl, 1 mM EDTA, 20 mM Tris-HCl, pH 8.0, and dounce homogenized until cells were no longer visible by microscopy. Debris was pelleted for 5 min, 800×g and the supernatant was loaded on top of a 10 mL continuous 10-40% gradient, prepared by the dilution of OptiPrep (Sigma, 60% iodixanol) with 0.25M sucrose, 140 mM NaCl, 3 mM EDTA, 60 mM Tris-HCl, pH8.0. Gradients were spun in a swinging bucket rotor at 48000×g for 18 hrs and 0.5 mL fractions were collected. Total protein was precipitated from each fraction by the addition of 2 volumes of −20° C. […]

[3] = test system: transferrin or its receptor (markers of clathrin-coated vesicles); assay: FITC-transferrin uptake and transferrin receptor gradient fractionation; assay type: cell-based, human; settings: U87p75 and U87R cells, 2 hours
Experimental: FIG. 9A are confocal images of p75^NTR transfected glioma cells (U87p75) imaged for uptake of FITC-transferrin.
Cells were lysed, fractioned using an iodixanol gradient, and Western Blot analysis for the transferrin receptor was performed;
Cells were scraped into 1 mL of 0.25M sucrose, 140 mM NaCl, 1 mM EDTA, 20 mM Tris-HCl, pH 8.0, and dounce homogenized until cells were no longer visible by microscopy. Debris was pelleted for 5 min, 800×g and the supernatant was loaded on top of a 10 mL continuous 10-40% gradient, prepared by the dilution of OptiPrep (Sigma, 60% iodixanol) with 0.25M sucrose, 140 mM NaCl, 3 mM EDTA, 60 mM Tris-HCl, pH8.0. Gradients were spun in a swinging bucket rotor at 48000×g for 18 hrs and 0.5 mL fractions were collected. Total protein was precipitated from each fraction by the addition of 2 volumes of −20° C. 20 mM DTT, 15% TCA, storage at −20° C. overnight, followed by centrifugation at 4° C. for 20 minutes. Pellets were resuspended in 20 μL 1M Tris and 20 μL 2× Laemmli buffer. The entire volume was loaded into a single well for SDS-PAGE resolution and western transfer.

[4] = Water solubility of peptide; assay type: physicochemical; settings: three N-terminal residues (KKG) added
Excerpt: In one aspect, the invention includes a peptide composition for targeting either (i) a highly invasive glioma cells (HIGC) subtype of human GBM cells, e.g., the U87R subtype of U87GM cells, or (ii) a brain tumor initiating cell (BTIC) subtype of human GBM cells, as characterized above. The peptide in the composition is 12-20 amino acid residues in length and contains one of the sequences identified as SEQ ID NOS-1-17, or a sequence that is at least 90% homologous with the given sequence. That is, the peptide has the same sequence as one of SEQ ID NOS: 1-17, or a sequence that differs from the given sequence by at most one amino acid residue. The peptide may contain only the given sequence of amino acids, or may contain additional N- and/or C-terminal residues up to a total of 20 residues. Thus, for example, the peptide corresponding to SEQ ID NO: 7, […] (H10), may have this exact sequence, the same sequence but with a single amino acid substitution, addition or deletion at any of the 12 residue positions, or a peptide having a total of up to eight additional residues at one or both of the N- or C-terminals.

[5] = test system: BTIC lines (neurospheres); assay: Staining with biotin-labeled synthetic peptide, confocal, BTIC neurospheres; assay type: binding, human; settings: neurospheres stained in suspension
Experimental: (§1) Binding specificity of the 7A peptide was assessed with non-target (U87MG; NSC) and target (BTIC) cells using a biotinylated 7A peptide (red) followed by confocal imaging.
(§2) To confirm the preferential binding of 7A to the BTICs rather than the cells used for subtraction, neurospheres and U87MG cells were stained in suspension with biotin-labeled synthetic peptide. […] Examination of the interaction of all selected peptides across a panel of BTIC lines underscored the heterogeneity within each cell population, and established a platform for correlating the ability to bind particular peptide sequences with either cell behavior or patient outcome.
(§3) Adherent cells: 13 mm coverslips were coated with neutralized 3 mg/mL Collagen I (PureCol), allowed to dry, then plated with test cells at 1×10^4/mL, 0.5 mL volume and allowed to equilibrate 20 minutes under normal culture conditions. Coverslips were fixed for 10 minutes in 3% formaldehyde in PBS, washed, then incubated in biotinylated peptide (3 mM stock) or primary antibody at a 1:100 dilution in 2% BSA/0.02% Tween 20 in PBS for 1 hour at room temperature. After washing in PBS, secondary antibody or streptavidin-Alexa 568 was applied at a dilution of 1:250 for 1 hour before coverslips were washed and mounted with DAKO mounting media with antifade. […]

U87MG cells = assay: Staining with biotin-labeled synthetic peptide, confocal, U87MG; assay type: binding, human
Experimental: as §1, §2, §3

normal stem cells (NSC) = assay: Staining with biotin-labeled synthetic peptide, confocal, normal stem cells; assay type: binding; settings: not tumorigenic cells
Experimental: as §1, §2
Suspended neurospheres: 50 μL of densely suspended neurospheres were stained as described above, except in suspension in an eppendorf tube. The stained neurospheres were mounted in a drop of DAKO mounting media under a coverslip.

[6] = test system: BTIC 12 and BTIC 25 xenografts; assay: In vivo phage homing, BTIC xenografts, anti-phage immunohistochemistry; parameters: species or system SCID mice; settings: phage perfused 10 minutes
Experimental: (§4) Cells were injected into the right brain hemisphere of SCID mice and allowed to establish for three months. Mice were then perfused with 7A or A1 (random control) phage for 10 minutes. […] 7A homing was not observed in mice bearing tumors generated from the U251N cell line.
(§5) 3×10^4 U87T cells, 3×10^5 U87R cells or 5×10^4 BTICs were injected in a 3 μL volume into one brain hemisphere of a SCID mouse and allowed to grow for 4, 6 or 12 weeks respectively. The mice were anaesthetized, then treated with 150 μL of 20% (w/v) mannitol for 15 minutes before injecting 5×10^9 pfu into the brain via the carotid. After allowing the phage to circulate for 10 minutes, unbound phage were flushed out of the circulatory system with 15 mL of PBS injected into the left ventricle after the right atrium was clipped. The brains were harvested, immediately frozen on dry ice and embedded in OCT for sectioning.
(§6) Serial sections were fixed with cold acetone, and rehydrated through an ethanol gradient. Endogenous peroxidases in the sections were inactivated with 0.075% H2O2/methanol, and nonspecific binding was blocked with 10% normal goat serum in PBS. […] Avidin-biotin peroxidase complexes were then formed using the VECTASTAIN Elite ABC kit (Vector Laboratories) and detected by addition of […] […]

[7] = test system: U251N human glioblastoma line xenografts; assay: In vivo phage homing, U251N xenografts; parameters: species or system SCID mice; settings: phage perfused, anti-phage immunohistochemistry
Experimental: as §4, §5, §6

[8] = test system: implanted GBM tumor from the BT025 cell line; assay: In vivo targeting of fluorescent peptide to implanted BT025 tumor, fluorescence microscopy of brain sections; parameters: species or system mice
Experimental: In the studies shown in FIGS. 13A and 13B, brain tumors were implanted in mice with a patient-derived BTIC cell line BT025 identified as above by its binding to the 7A peptide. After tumor growth from the implanted cells, the tumors were removed, sectioned and stained for microscopic visualization. In the studies shown in FIGS. 14-19, a fluorescent peptide was administered intravenously, either by intracorotid injection or via tail vein into mice having an implanted GBM tumor from the BT025 cell line (FIGS. 14-17) or the U87MG cell line (FIGS. 18 and 19), and after localization of the peptide, the animal were sacrificed and their brain tumors removed for sectioning and visualization by fluorescence microscopy.
The peptide was administered to the mouse via intracarotid injection and allowed to circulate for approximately half an hour to allow clearance of background signal before the mouse was sacrificed and the brain removed for imaging using an Olympus OV100 whole mouse imaging system. By non-magnified inspection, the large outgrowth of the tumor is obvious.
FIGS. 14B and 14C are lower and higher magnification photomicrographs of a thin section taken from the brain in FIG. 14A after it was bisected close to the tumor implantation site and stained for human nuclear antigen (green) and total DNA (blue) to outline the positioning of the cells. The red peptide signal is visible on cells immediately adjacent to the main tumor mass as well as spread diffusely in the surrounding tissue.

[9] = test system: BTIC isolates (BTIC 12, 25, 42, 50); assay: Biopanning of phage display library against a mixture of BTIC isolates, sequencing of subclones; settings: BTIC-binding phage subclones; given as n/50 subclones screened
U87R xenografts = assay: In vivo phage homing, U87R xenografts, anti-M13 immunohistochemistry; parameters: species or system SCID mice; settings: H10 phage perfused in mice carrying U87R tumors; signal within tumor mass or peritumoral; method uses mannitol pretreatment
Experimental: FIG. 6A illustrates the in vivo homing capability of H10. Invasive U87R or non-invasive U87T cells were grown in the right brain hemisphere of SCID mice. Once tumors were established, mice were anaesthetized and perfused with H10 phage for 10 minutes. Unbound phage was flushed from the system with PBS. Brains were cryosectioned and immunohistochemically stained for M13 phage or human nuclear antigen (hNA).
The ability of the selected phage or their corresponding peptides was examined for their ability to ‘home’ to their respective U87R or BTIC glioma cell targets in vivo, according to their ability to detect glioma cells in an orthotopic xenograft model. In the case of H10, SCID mice carrying U87R or U87T xenografts were injected with the test phage for ten minutes, which was subsequently perfused with PBS to remove any unbound particles.
3×10^4 U87T cells, 3×10^5 U87R cells or 5×10^4 BTICs were injected in a 3 μL volume into one brain hemisphere of a SCID mouse and allowed to grow for 4, 6 or 12 weeks respectively. […]
Serial sections were fixed with cold acetone, and rehydrated through an ethanol gradient. […] Avidin-biotin peroxidase complexes were then formed using the VECTASTAIN Elite ABC kit (Vector Laboratories) and detected by addition of […] […]

cholesterol oxidase
cell migration of U87p75 glioma cells [1]: significantly inhibited cell migration
GM1 localisation [2]: accumulate within the cells, particularly at the plasma membrane
distribution of p75^NTR forms in density gradient fractions (p75^NTR in U87R cells): shift of higher molecular weight forms of p75^NTR into the denser gradient fractions
intracellular localization or gradient fractionation of transferrin or its receptor [3]: no effect

CC[C@H](C)[C@H](NC(=O)[C@H](CO)NC(=O)[C@H](CC(N)=O)NC(=O)[C@@H](NC(=O)CNC(=O)[C@H](CCCCN)NC(=O)[C@@H](N)CCCCN)[C@@H](C)O)C(=O)N[C@@H](Cc1c[nH]c2ccccc12)C(=O)N[C@@H](Cc1ccc(O)cc1)C(=O)N[C@H](C(=O)N[C@@H](C)C(=O)N1CCC[C@H]1C(=O)N[C@@H](Cc1ccc(O)cc1)C(=O)N[C@@H](CCSC)C(=O)N[C@@H](Cc1ccccc1)C(=O)O)[C@@H](C)O [modified H10] (H-KKGTNSIWYTAPYMF-OH; N-terminus and C-terminus assumed)
water solubility relative to H10 peptide [4]: substantially more water soluble

PSPHRQRQHILR (synthetic BTIC targeting peptide) [7A]
binding of peptide to BTICs [5]: high percentage of positive cells within the neurosphere
binding of peptide to U87MG cells (U87MG cells): predominantly negative
binding of peptide to normal stem cells (normal stem cells (NSC)): predominantly negative
in vivo phage staining of BTIC xenografts [6]: only a subset of cells within the main tumor masses of BTIC 12 and 25 showed positive staining
in vivo phage staining of U251N xenografts [7]: no staining was detected
distribution of fluorescent peptide signal in brain sections ([8]; BT025 tumor, intracarotid injection): binds primarily to cells that are diffusely spread outside the main tumor mass
fluorescent signal in whole brain imaging of tumor ([8]; intracarotid injection, approximately half an hour circulation, Olympus OV100): appears strongly in part of the tumor, but clearly does not detect all tumor cells present
localization of peptide conjugate in human GBM tissue in vivo (summary) ([8]; intravenous administration, BT025 tumor (general statements also cover U87MG tumors)): can localize in human GBM tissue in vivo
number of phage subclones containing that sequence [9]: 25/50

CC[C@H](C)[C@H](NC(=O)[C@H](CO)NC(=O)[C@H](CC(N)=O)NC(=O)[C@@H](N)[C@@H](C)O)C(=O)N[C@@H](Cc1c[nH]c2ccccc12)C(=O)N[C@@H](Cc1ccc(O)cc1)C(=O)N[C@H](C(=O)N[C@@H](C)C(=O)N1CCC[C@H]1C(=O)N[C@@H](Cc1ccc(O)cc1)C(=O)N[C@@H](CCSC)C(=O)N[C@@H](Cc1ccccc1)C(=O)O)[C@@H](C)O [H10] (H-TNSIWYTAPYMF-OH; N-terminus and C-terminus assumed)
crossing of the blood brain barrier (BBB) (U87R xenografts): has the ability to cross the blood brain barrier
